The record followed here is patent US7745422B2, “Bisphosphonate compounds and methods for bone resorption diseases, cancer, bone pain, immune disorders, and infectious diseases” (The Board of Trustees of the University of Illinois, priority 2004, dated 2010).

The subject of assay [1] is Vγ2Vδ2 T cells. Briefly: gammadelta T cell stimulation (TNF-α release assay). To be noted: Homo sapiens, T-cell. The format is cell-based, human. The source says: (§1) We then investigated the activity of each compound in inhibiting the FPPS from L. major, in Dictyostelium discoideum growth inhibition and in γδ T cell activation. We used the FPPS from L. major since this enzyme is the putative bisphosphonate target in several trypanosomatid species.

For assay [2], the system named is Dictyostelium discoideum. The experiment in a line: D. discoideum cell growth inhibition. The format is cell-based. The following applies: Dictyostelium discoideum.
Excerpt: as §1

The test system of assay [3] is T. cruzi. The experiment in a line: Activity against T. cruzi. The format is cell-based. To be noted: Trypanosoma cruzi; Table 5; read-out: (8) T. cruzi IC50. The source says: We have obtained data for selected bisphosphonate compounds against parasites including Trypanosoma brucei, Trypanosoma cruzi, and Leishmania major. […] See Table 5 (in some instances, the same data depicted elsewhere herein, e.g., in Table 1, may be presented again to facilitate comparative analysis).

For assay [4], the target named is T1, human FPPS (Homo sapiens, UniProt P14324).
T1 sequence (P14324 1-419): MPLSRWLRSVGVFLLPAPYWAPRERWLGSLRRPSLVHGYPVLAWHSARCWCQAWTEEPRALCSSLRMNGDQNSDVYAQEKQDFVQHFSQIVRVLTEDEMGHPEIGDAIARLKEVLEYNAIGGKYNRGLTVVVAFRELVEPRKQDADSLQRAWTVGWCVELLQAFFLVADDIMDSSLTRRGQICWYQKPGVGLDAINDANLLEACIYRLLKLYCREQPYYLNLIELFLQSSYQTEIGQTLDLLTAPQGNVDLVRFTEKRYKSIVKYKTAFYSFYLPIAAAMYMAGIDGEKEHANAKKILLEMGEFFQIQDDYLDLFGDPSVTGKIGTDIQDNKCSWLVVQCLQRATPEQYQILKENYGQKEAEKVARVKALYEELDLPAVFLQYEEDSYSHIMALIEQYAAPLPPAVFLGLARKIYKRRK
Briefly: human FPPS assay. The format is biochemical.

In assay [5] the test system is fetal mouse metatarsals. Briefly: bone resorption assay: 45Ca2+ release from 17-day old fetal mouse metatarsals. The format is cell-based. To be noted: Mus musculus; Table 4. The protocol: Compounds are tested in a bone resorption assay: ^45Ca^2+ release from 17-day old fetal mouse metatarsals (ref. 37).
Assay [6] has as its system human nasopharyngeal carcinoma cells. The experiment in a line: Toxicity testing in human nasopharyngeal carcinoma cells. The format is cell-based. The following applies: read-out: (5) Toxicity IC50. The protocol: We have obtained data for selected bisphosphonate compounds in the contexts of D. discoideum assays, human FPPS assays, gammadelta T cell stimulation assays, and bone resorption assays. […] Some toxicity testing was also performed. See Table 4 (in some instances, the same data depicted elsewhere herein, e.g., in Table 1, may be presented again to facilitate comparative analysis).

Converted amounts (≈) assume the structure as drawn. Read-outs that look alike come from different tables or passages of the source.

Turning to `O=P([O-])(O)C(O)(C[n+]1ccccc1)P(=O)(O)O` (stereo not drawn) [Compound 278], the EC50 turned out to be 5100 nM in assay [1] (read-out: (3) gammadelta T cell stimulation EC50); 4800 nM in assay [1] (read-out: gammadelta T cell stimulation EC50); 5100 nM in assay [1] (read-out: gammadelta T cell stimulation, EC50). For the same compound, the IC50 (commonly the midpoint of a concentration-inhibition curve) in assay [2] (read-out: (1) D. discoideum IC50) was determined as 2600 nM; in assay [2] (read-out: D. discoideum IC50) it was 2100 nM; in assay [3] it was 3.07 µg/mL (≈ 10.8 µM); in assay [4] it was 1600 nM; in assay [5] it was 670 nM; in assay [6], 300 µg/mL (≈ 1060 µM).
